1 compound from patent US20140121235A1, “Method for Treating S6K-Overexpressing Cancers” (Rush University Medical Center, priority 2012, published 2014) can be followed below.

Entries after “also recorded” stand apart in the source; their conditions may differ.

One experiment deals with A375 cells. The experiment in a line: Cell proliferation assay (ATP-based Cell-Glo). Particulars: for inhibitory effect of A77 1726 blocked by uridine: exogenous uridine. The protocol: A375 cells were seeded in 96-well plates (2000 cells/well) and incubated the indicated concentrations of A77 1726 for 72 hr in the absence or presence of various concentrations PLX4720 (A, C) with or without uridine (200 μM) (B, D). Cell proliferation was analyzed by an ATP-based Cell-Glo assay. One representative of three experiments with similar results was shown. *p<0.01.
A375 cells were grown in complete RPMI 1640 medium supplemented with 10% fetal bovine serum. The cells were seeded in 96-well plates at the density of 2,000/well in the absence or presence of various concentrations of A77 1726, PLX4720, or uridine (200 μM). After incubation for 72 hr, cell proliferation was monitored by using an ATP-based Cell-Glo assay (Promegan, Madison, Wis.) following the manufacturer's instruction.

The next experiment deals with Raf-1 phosphorylation. The experiment in a line: Western blot of Raf-1 phosphorylation in A375 cells. The format is cell-based. The protocol: A375 cells seeded in a 6-well plate were starved in DMEM medium containing 0.5% FBS for 2 hr and treated with the indicated concentration of A77 1726 or PLX 4720 (1 μM) for another 2 hr (A) or treated with A77 1726 (100 μM) for the indicated time (B & C). Cells were harvested and analyzed for protein phosphorylation by specific antibodies as indicated. Protein loading was monitored by stripping membrane and re-probing with antibodies against non-phosphorylated proteins. (D) Uridine fails to reverse the effect of A77 1726 on the PI-3 and MAP kinase pathways. A375 cells seeded in a 6-well plate were starved in DMEM medium containing 05% FBS for 2 hr and treated with the indicated concentration of A77 1726 in the absence or presence of uridine (200 μM). Phosphorylated and total proteins were analyzed by Western blot as described above.
Cells grown in 6-well plates were harvested and lysed in NP-40 lysis buffer (50 mM Tris-HCI (pH 8.0), 150 mM NaCl, 1% NP-40, 5 mM EDTA, 10 μg/ml aprotinin, 10 μg/ml leupeptin, and 1 mM phenylmethylsulfonyl fluoride). After incubation on ice for 30 min, the cell lysates were prepared by spinning down at 4° C., 15,000 rpm for 15 min. […]
A general note: In western blotting, separated proteins are transferred to a membrane and probed.

A further experiment deals with cyclin D1 expression. The experiment in a line: Cyclin D1 expression in A375 cells. Set-up: dose or concentration left out as unconfirmed. Conditions: A375 cells, 24, 48 and 72 hours; time-dependent. The format is cell-based. The protocol:
FIG. 13 illustrates inhibition of […]) expression by A 77 1726.
S6K 1 has been implicated in playing an important role in regulating expression of cyclin D1. Cyclin D1 expression was tested in the presence of A 77 1726. A375 cells were treated with […] A 77 1726 for 0, 24, 48 and 72 hours.

For the compound `C/C(O)=C(\C#N)C(=O)Nc1ccc(C(F)(F)F)cc1` [A77 1726], the “inhibitory effect of A77 1726 blocked by uridine” value in the experiment on A375 cells (A77 1726 at 200 μM) is “about 20%”; in the experiment on A375 cells (A77 1726 at 50 or 100 μM) it was 80%. Besides, the IC50 in the experiment on A375 cells (Homo sapiens, A-375, 72 hr, read-out: IC50, inhibition of A375 proliferation) is about 65 µM. Also, the “effect on Raf-1 phosphorylation” value in the experiment with Raf-1 phosphorylation is reported as “no increased Raf-1 phosphorylation; also recorded: had no effect”. For the same compound, in the experiment with cyclin D1 expression, the “effect on cyclin D1 expression” value is listed as “inhibited”.
